Measurements as given in the supplement of paper PMC10307832.

What was measured:
Assay in all cases: relative viability (nuclei count vs DMSO), 5 days (fraction); higher = more cells survive
XMD8-85 + Bortezomib = compound: CN1CCN(CC1)C2=CC(=C(C=C2)NC3=NC=C4C(=N3)N(C5=CC=CC=C5C(=O)N4C)C)OC [XMD8-85] + CC(C)C[C@H](NC(=O)[C@H](Cc1ccccc1)NC(=O)c1cnccn1)B(O)O [Bortezomib] (partner 0.002 µM)
How it was run: (§1)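 One day after seeding in 1536-well plates, lung cancer cell lines were dosed by pin tool. Dosing was either single-drug or a fixed anchor-drug dose plus five library-drug doses (not always all listed) in √10 steps. After 5 days, nuclei were stained in one fix-and-stain step and counted on 4× images, and relative viability is the nuclei count of treated wells over that of vehicle wells, given as the median of duplicate plates.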

XMD8-85 + Linsitinib = compound: CN1CCN(CC1)C2=CC(=C(C=C2)NC3=NC=C4C(=N3)N(C5=CC=CC=C5C(=O)N4C)C)OC [XMD8-85] + C[C@]1(O)C[C@@H](c2nc(-c3ccc4ccc(-c5ccccc5)nc4c3)c3c(N)nccn32)C1 [Linsitinib] (partner 1 µM)
How it was run: as §1

4EGI-1 + Palbociclib = compound: O=C(O)C(Cc1ccccc1[N+](=O)[O-])=NNc1nc(-c2ccc(Cl)c(Cl)c2)cs1 (mixture of isomers) [4EGI-1] + CC(=O)c1c(C)c2cnc(Nc3ccc(N4CCNCC4)cn3)nc2n(C2CCCC2)c1=O [Palbociclib] (partner 0.5 µM)
How it was run: as §1

4EGI-1 + Dasatinib = compound: O=C(O)C(Cc1ccccc1[N+](=O)[O-])=NNc1nc(-c2ccc(Cl)c(Cl)c2)cs1 (mixture of isomers) [4EGI-1] + Cc1nc(Nc2ncc(C(=O)Nc3c(C)cccc3Cl)s2)cc(N2CCN(CCO)CC2)n1 [Dasatinib] (partner 0.075 µM)
How it was run: as §1

Row | Cell Line | relative viability (XMD8-85 + Bortezomib; first compound 0.08 µM) | relative viability (XMD8-85 + Bortezomib; first compound 0.253 µM) | relative viability (XMD8-85 + Bortezomib; first compound 0.8 µM) | relative viability (XMD8-85 + Bortezomib; first compound 2.53 µM) | relative viability (XMD8-85 + Bortezomib; first compound 8 µM) | relative viability (XMD8-85 + Linsitinib; first compound 0.08 µM) | relative viability (XMD8-85 + Linsitinib; first compound 0.253 µM) | relative viability (XMD8-85 + Linsitinib; first compound 0.8 µM) | relative viability (XMD8-85 + Linsitinib; first compound 2.53 µM) | relative viability (XMD8-85 + Linsitinib; first compound 8 µM) | relative viability (4EGI-1 + Palbociclib; first compound 0.5 µM) | relative viability (4EGI-1 + Palbociclib; first compound 5 µM) | relative viability (4EGI-1 + Palbociclib; first compound 15.81 µM) | relative viability (4EGI-1 + Palbociclib; first compound 50 µM) | relative viability (4EGI-1 + Dasatinib; first compound 0.5 µM) | relative viability (4EGI-1 + Dasatinib; first compound 5 µM) | relative viability (4EGI-1 + Dasatinib; first compound 15.81 µM) | relative viability (4EGI-1 + Dasatinib; first compound 50 µM) | relative viability (4EGI-1 + Palbociclib; first compound 1.581 µM) | relative viability (4EGI-1 + Dasatinib; first compound 1.581 µM)
1 | PC-14 | 0.794 | 0.964 | 0.821 | 0.935 | 0.596 | 1.06 | 0.849 | 0.914 | 0.843 | 0.86 | 0.559 | 0.659 | 0.188 | 0.0675 | 0.342 | 0.297 | 0.0363 | 0.0488 | – | –
2 | NCI-H520 | 0.491 | 0.51 | 0.772 | 0.507 | 0.205 | 0.86 | 0.914 | 1.16 | 0.849 | 0.67 | 0.27 | 0.266 | 0.223 | 0.105 | 0.204 | 0.187 | 0.215 | 0.153 | 0.225 | 0.276
3 | NCI-H2342 | – | – | – | – | – | – | – | – | – | – | 0.506 | 0.582 | 0.59 | 0.539 | 0.299 | 0.292 | 0.292 | 0.257 | 0.547 | 0.3
4 | NCI-H3122 | 1.11 | 1.02 | 1.05 | 1.05 | 0.915 | 1.03 | 0.95 | 1.03 | 1.06 | 1.09 | 0.191 | 0.152 | 0.227 | 0.199 | 0.967 | 0.881 | 0.841 | 0.239 | 0.158 | 0.739
5 | HCC-78 | 0.639 | 0.455 | 0.375 | 0.495 | 0.316 | 0.594 | 0.532 | 0.445 | 0.443 | 0.382 | 0.471 | 0.434 | 0.432 | 0.488 | 0.41 | 0.383 | 0.34 | 0.357 | 0.462 | –
6 | SW 1573 | 0.881 | 1.34 | 1.02 | 1.03 | 0.639 | 0.873 | 0.802 | – | 0.698 | 0.655 | 0.417 | 0.47 | 0.257 | 0.119 | 0.7 | 0.593 | 0.234 | 0.0967 | 0.354 | 0.254
7 | RERF-LC-KJ | 0.937 | 1.07 | 1.06 | 1.2 | 0.742 | 0.826 | 0.903 | 0.881 | 0.804 | 0.883 | 1.09 | 0.953 | 0.882 | 0.625 | 0.999 | 0.641 | 0.496 | 0.266 | 0.481 | –
8 | SK-MES-1 | – | – | – | – | – | 1.09 | 0.942 | 0.95 | 1 | 0.964 | 0.354 | 0.336 | 0.288 | 0.18 | 0.479 | 0.34 | 0.356 | 0.198 | 0.27 | 0.312
9 | NCI-H1993 | 0.965 | 0.958 | 1.08 | 1.29 | 1.07 | 0.814 | 0.669 | 0.812 | 0.718 | 0.704 | 0.727 | 0.584 | 0.52 | 0.366 | 0.595 | 0.543 | 0.467 | 0.441 | 0.624 | 0.616
10 | NCI-H1915 | 0.67 | 0.923 | 0.942 | 0.986 | 0.945 | 1.15 | 1.15 | 1.08 | 1.16 | 0.999 | 0.562 | 0.517 | 0.477 | 0.404 | 0.358 | 0.314 | 0.311 | 0.163 | 0.369 | 0.257
11 | NCI-H1650 | 0.26 | 0.197 | 0.192 | 0.173 | 0.179 | – | – | – | – | – | 0.417 | 0.331 | 0.255 | 0.141 | 0.307 | 0.364 | 0.219 | 0.136 | – | –
12 | HCC-44 | 0.938 | 0.911 | 0.816 | 0.962 | 0.679 | 0.714 | 0.749 | 0.642 | 0.499 | 0.346 | 1 | 0.907 | 0.862 | 0.681 | – | – | – | – | 0.813 | –
13 | NCI-H2170 | – | – | – | – | – | – | – | – | – | – | 0.423 | 0.382 | 0.392 | 0.273 | 0.676 | 0.628 | 0.473 | 0.173 | 0.363 | 0.504
14 | NCI-H1975 | 0.443 | 0.36 | 0.378 | 0.297 | 0.222 | 1.01 | 0.908 | 0.981 | 1.03 | 0.498 | 0.725 | 0.527 | 0.665 | 0.41 | 0.372 | 0.302 | 0.282 | 0.249 | 0.565 | 0.363
15 | HCC-827 | 1.16 | 1.1 | 1.05 | 0.978 | 1.02 | 0.934 | 0.975 | 1.02 | 0.97 | 0.974 | 0.521 | 0.565 | – | 0.5 | 0.346 | 0.345 | 0.127 | 0.261 | 0.403 | 0.246
16 | NCI-H2347 | 1.2 | 1.09 | 0.824 | 0.921 | 0.407 | 0.91 | 0.923 | 0.808 | 1.04 | 0.796 | 0.427 | 0.447 | 0.413 | 0.34 | 0.339 | 0.318 | 0.305 | 0.336 | 0.405 | –
17 | NCI-H1437 | 0.497 | 0.443 | 0.438 | 0.541 | 0.378 | 0.902 | 0.944 | 1.09 | 0.92 | 0.413 | 0.368 | 0.335 | 0.279 | 0.168 | 0.427 | 0.421 | 0.232 | 0.103 | 0.308 | 0.409
18 | NCI-H1623 | – | – | – | – | – | – | – | – | – | – | – | – | – | – | 0.507 | 0.575 | 0.437 | 0.414 | – | 0.446
19 | NCI-H2126 | 1.04 | 1.13 | 1.18 | 1.15 | 1.12 | 0.69 | – | 0.766 | 0.726 | 0.681 | 0.324 | 0.326 | 0.343 | 0.339 | 0.673 | 0.629 | 0.383 | 0.309 | 0.371 | –
